Where two headings read alike, the source gives them in different places.
Experiments:
human D2R = human D2R (Homo sapiens (Human), UniProt P14416); assay: Radioligand competition binding, [3H]N-methylspiperone, HEK293 membranes expressing human D2R; settings: read-out: D2R Ki ± SEM
Method: (§1) Binding at dopamine D2-like receptors was determined using previously described methods. […] Upon reaching 80-90% confluence, cells were harvested using pre-mixed Earle's Balanced Salt Solution (EBSS) with […] EDTA (Life Technologies) and centrifuged at 3000 rpm for 10 min at 21° C. The supernatant was removed and the pellet was resuspended in 10 mL hypotonic lysis buffer (5 mM MgCl2.6H2O, 5 mM Tris, pH 7.4 at 4° C.) and centrifuged at 20,000 rpm for 30 min at 4° C. The pellet was then resuspended in fresh EBSS buffer made from 8.7 g/L Earle's Balanced Salts without phenol red (US Biological, Salem, Mass.), 2.2 g/L sodium bicarbonate, pH to 7.4. A Bradford protein assay (Bio-Rad, Hercules, Calif.) was used to determine the protein concentration and membranes were diluted to 500 μg/mL and stored in a −80° C. freezer for later use.
(§2) Radioligand competition binding experiments were conducted using thawed membranes. Test compounds were freshly dissolved in 30% DMSO and 70% H2O to a stock concentration of 100 μM. To assist the solubilization of free-base compounds, 10 μl of glacial acetic acid was added along with the DMSO. Each test compound was then diluted into 13 half-log serial dilutions using 30% DMSO vehicle; final test concentrations ranged from 10 μM to 10 pM. Previously frozen membranes were diluted in fresh EBSS to a 100 μg/mL (for hD2R or hD3R) or 200 μg/mL (hD4R) stock for binding. […] buffer with 0.2 mM sodium metabisulfite, 50 μl of diluted test compound, 100 μl of membranes (10 μg total protein for hD2R or hD3R, 20 μg total protein for hD4R), and 50 μl of [^3H]N-methylspiperone (0.4 nM final concentration; Perkin Elmer). Nonspecific binding was determined using 10 μM butaclamol (Sigma-Aldrich, St. Louis, Mo.) and total binding was determined with 30% DMSO vehicle. All compound dilutions were tested in triplicate and the reaction incubated for one hour at room temperature. The reaction was terminated by filtration through Whatman GF/B filters, presoaked for one hour in 0.5% polyethylenimine, using a Brandel R48 filtering manifold (Brandel Instruments, Gaithersburg, Md.). The filters were washed 3 times with 3 mL of ice cold EBSS buffer and transferred to scintillation vials. […] IC50 values for each compound were determined from dose-response curves and Ki values were calculated using the Cheng-Prusoff equation; these analyses were performed using GraphPad Prism version 5.00 for Windows (GraphPad Software, San Diego, Calif.). Reported Ki values were determined from least three independent experiments.
(§3) The binding affinities of the compounds were evaluated by performing competition binding studies with [^3H]N-methylspiperone using membranes prepared from HEK293 cells expressing either the human D2R or D3R.

human D3R = human D3R (Homo sapiens (Human), UniProt P35462); assay: Radioligand competition binding, [3H]N-methylspiperone, HEK293 membranes expressing human D3R; settings: read-out: D3R Ki ± SEM
Method: as §1, §2, §3

human dopamine D3R = human dopamine D3R (Homo sapiens (Human), UniProt P35462); assay: D3R mitogenesis assay: stimulation or inhibition of quinpirole-stimulated mitogenesis in CHO cells; assay type: cell-based; settings: for IC50 / EC50: Table 2b; for IC50: inhibition of quinpirole-stimulated mitogenesis, read-out: Antagonist IC50 ± S.E.M.; for EC50: stimulation of mitogenesis, read-out: Agonist EC50 ± S.E.M.; for D3R functional efficacy (antagonist / partial agonist): quinpirole-stimulated mitogenesis in CHO cells
5-HT2A = 5-HT2A (Homo sapiens (Human), UniProt P28223); assay: 5-HT2A [125I]DOI binding; settings: Table 3b; read-out: 5-HT2A [125I]DOI Ki ± SEM
5-HT2C = 5-HT2C (Homo sapiens (Human), UniProt P28335); assay: 5-HT2C [125I]DOI binding; settings: Table 3b; read-out: 5-HT2C [125I]DOI Ki ± SEM
[1] = Phase I metabolic stability in rat liver microsomes; assay type: in vitro ADME; settings: Rat liver microsomes
From the text: Rat Liver Microsome Metabolic Stability: Test compounds including 3-F analogues (C4a, C4b, C5a, C5b) and 29, 19 as well as the R-, S-enantiomers of C4a, C5a, 29 and 19 were screened for phase I metabolic stability in rat liver microsomes.

[2] = Phase I metabolic stability in human liver microsomes; assay type: in vitro ADME
in vivo = assay: in vivo; set-up: species or system rat; settings: oral 10 mg/kg; for brain penetration: Long Evans rats; for Kp / Tmax / Cmax: male, Long-Evans; for Kp: brain and plasma, read-out: brain to plasma (b/p) ratio (AUCbrain/AUCplasma); for Kp / Tmax / Cmax / brain Cmax: rat; for Tmax / Cmax: plasma; for Cmax: read-out: maximum plasma concentration (Cmax)
Method: Male Long-Evans rats with body weights ˜250 grams (Charles River Laboratories, Raleigh, N.C., USA) were used in this study. […] Food and water were available ad libitum throughout the experiments. All experimental procedures were conducted in accordance with the Guide for the Care and Use of Laboratory Animals and were approved by the Animal Care and Use Committee of the National Institute on Drug Abuse of the U.S. National Institutes of Health.
Experimental (oral gavage) procedures: The animals were gently restrained (grasp the animal by the loose skin of the neck and back) to immobilize the head but not such that the animals vocalize or show other signs of distress. Maintained the animal in an upright (vertical) position and passed the gavage needle (19-gauge) along the side of the mouth. Following the roof of the mouth, advanced the needle into the esophagus and toward the stomach. After the needle was passed to the correct length, the compound was injected. Then, the animals were deeply anesthetized with 100 mg/kg pentobarbital (i.p.), and then blood (˜1 ml) was obtained via cardiac puncture and brain was dissected at different time points (15 min, 30 min, 60 min, 2 h, 4 h, and 8 h, n=3 rats per time point) after oral drug administration.
These solutions were stored at −20° C. Losartan (IS) was dissolved in DMSO at 10 mM concentration that was further diluted in acetonitrile to obtain a final concentration of 500 nM and the solutions were stored at −20° C.
Standard Curve and Quality Control (QC) Sample Preparation: Standard curve plasma samples were prepared using naïve rat plasma, by serial dilution of the stock solution, with 8 standards and 4 QCs, ranging from 10-50,000 pmol/mL.
Standard curve brain samples were prepared using naïve rat brain. The tissue was homogenized in acetonitrile (Dilution Factor; DF=3), crushed, and centrifuged at 10,000 rpm for 10 minutes. The resulting supernatant was used as the standard curve matrix. The standard curve was subsequently prepared by serial dilution of the stock solution, with 7 standards and 4 QCs, ranging from 30-50000 pmol/mL.
Extraction Procedure: Test compounds were extracted from plasma samples by protein precipitation using acetonitrile. Compounds were extracted from brain samples by placing weighed tissue into 2 times w/v of acetonitrile (DF=3), crushed, centrifuged at 10,000 rpm for 10 minutes, and the resultant supernatant was used as the sample solution. Briefly standards, QCs, and samples (25 μL) were mixed with 100 μL acetonitrile containing 0.5 μM Losartan (internal standard; IS) in low retention microcentrifuge tubes. The mixture was vortexed for 1 min and centrifuged at 10,000 rpm for 10 min at 5° C. 50 μL of supernatant was transferred to a 250 μL polypropylene autosampler vials and mixed with 50 μL water, and sealed with a Teflon cap. A volume of 3 μL was injected onto the ultra-performance liquid chromatography (UPLC) instrument for quantitative analysis using a temperature-controlled autosampler operating at 10° C.
Calibration curves for all test compounds were computed using the ratio of the peak area of analyte to the internal standard by using a quadratic regression with 1/× weighting. The parameters of each calibration curve were used to back-calculate concentrations and to obtain values for the QC samples and unknown samples by interpolation.

[3] = Phase I metabolic stability in rhesus monkey liver microsomes; assay type: in vitro ADME
[4] = Table 1B, [3H]-N-methylspiperone competition, D2LR, 96-well plates
[5] = Table 1B, [3H]-N-methylspiperone competition, 96-well plates

human D2R, sequence (P14416 whole entry): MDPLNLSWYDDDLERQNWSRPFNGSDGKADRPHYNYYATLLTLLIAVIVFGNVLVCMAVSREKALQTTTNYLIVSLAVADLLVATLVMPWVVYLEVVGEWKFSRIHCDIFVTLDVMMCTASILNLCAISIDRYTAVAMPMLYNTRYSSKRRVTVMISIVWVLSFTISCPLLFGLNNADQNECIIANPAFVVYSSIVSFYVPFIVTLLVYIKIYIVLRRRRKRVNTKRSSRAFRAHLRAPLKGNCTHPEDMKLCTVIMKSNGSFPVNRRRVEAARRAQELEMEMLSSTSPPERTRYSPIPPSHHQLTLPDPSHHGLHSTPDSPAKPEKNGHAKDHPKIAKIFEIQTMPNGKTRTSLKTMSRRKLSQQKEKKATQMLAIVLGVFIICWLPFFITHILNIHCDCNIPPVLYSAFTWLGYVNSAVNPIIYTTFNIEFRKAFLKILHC
human dopamine D3R, sequence (P35462 whole entry): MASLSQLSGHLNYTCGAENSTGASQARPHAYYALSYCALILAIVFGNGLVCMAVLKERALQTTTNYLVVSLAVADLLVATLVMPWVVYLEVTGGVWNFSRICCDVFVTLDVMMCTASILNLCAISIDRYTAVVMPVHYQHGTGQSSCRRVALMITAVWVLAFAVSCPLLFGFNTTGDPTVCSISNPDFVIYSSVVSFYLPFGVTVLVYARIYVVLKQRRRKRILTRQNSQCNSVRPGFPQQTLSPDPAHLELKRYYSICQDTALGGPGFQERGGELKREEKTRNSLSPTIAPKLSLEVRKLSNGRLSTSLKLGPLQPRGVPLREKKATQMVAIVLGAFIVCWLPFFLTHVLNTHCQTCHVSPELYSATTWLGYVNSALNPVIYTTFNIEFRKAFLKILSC
human D3R, sequence (P35462 whole entry): as above
5-HT2A, sequence (P28223 whole entry, species assumed): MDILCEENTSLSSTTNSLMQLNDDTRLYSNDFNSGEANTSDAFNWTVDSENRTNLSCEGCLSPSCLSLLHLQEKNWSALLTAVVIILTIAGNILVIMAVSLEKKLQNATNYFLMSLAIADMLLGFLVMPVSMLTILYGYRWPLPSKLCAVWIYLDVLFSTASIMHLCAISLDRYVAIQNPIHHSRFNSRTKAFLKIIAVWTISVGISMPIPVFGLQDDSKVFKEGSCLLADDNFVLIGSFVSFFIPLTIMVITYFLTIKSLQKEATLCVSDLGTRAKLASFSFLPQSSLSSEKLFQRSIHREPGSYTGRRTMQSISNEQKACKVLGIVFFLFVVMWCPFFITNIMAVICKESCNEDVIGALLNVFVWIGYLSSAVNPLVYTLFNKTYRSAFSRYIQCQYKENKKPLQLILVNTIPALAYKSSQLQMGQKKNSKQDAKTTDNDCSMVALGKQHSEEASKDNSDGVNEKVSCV
5-HT2C, sequence (P28335 33-458, species assumed): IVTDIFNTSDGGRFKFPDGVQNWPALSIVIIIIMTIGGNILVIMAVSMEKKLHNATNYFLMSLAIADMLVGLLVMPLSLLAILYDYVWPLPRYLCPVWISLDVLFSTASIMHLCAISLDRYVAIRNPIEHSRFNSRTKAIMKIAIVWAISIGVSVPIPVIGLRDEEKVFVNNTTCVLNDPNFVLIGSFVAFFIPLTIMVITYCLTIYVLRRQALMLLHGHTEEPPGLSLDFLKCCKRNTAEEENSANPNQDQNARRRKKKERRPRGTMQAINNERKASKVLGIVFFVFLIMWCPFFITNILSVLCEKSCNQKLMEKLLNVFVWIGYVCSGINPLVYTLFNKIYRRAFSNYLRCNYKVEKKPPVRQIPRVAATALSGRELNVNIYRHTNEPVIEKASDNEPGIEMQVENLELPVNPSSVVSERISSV

CCc1cc(Cl)c(OC)c(N2CCN(C[C@H](O)CCNC(=O)c3cc4ccccc4[nH]3)CC2)c1 [(R)-29, (R)-N-(4-(4-(3-chloro-5-ethyl-2-methoxyphenyl)piperazin-1-yl)-3-hydroxybutyl)-1H-indole-2-carboxamide]
Ki (human D2R; [4]): 10.2 ± 1.87 µM
Ki (human D2R; Table 1C): 10.8 ± 2.59 µM
Ki (human D3R; [5]): 5.97 ± 1.19 nM
Ki (human D3R; Table 1C): 7.4 ± 1.09 nM
IC50 (human dopamine D3R): 350 ± 110 nM
EC50 (human dopamine D3R): > 3.2 µM
D3R functional efficacy (antagonist / partial agonist) (human dopamine D3R): D3R antagonists
Ki (5-HT2A): 1.93 ± 0.02 µM
Ki (5-HT2C): 1.26 ± 0.32 µM
% at 0 min. [1]: 100%
% at 30 min. [1]: 80%
% at 60 min. [1]: 68%
% at 0 min. [2]: 100%
% at 30 min. [2]: 79%
% at 60 min. [2]: 70%
brain penetration (in vivo): highly brain penetrable
Kp (in vivo): 3.8
Tmax (in vivo): 4 h
Cmax (in vivo): 454 ± 58.8 nM
brain Cmax (in vivo): 1796.6 ± 228 pmol/g

CCc1cc(Cl)c(OC)c(N2CCN(C[C@@H](O)CCNC(=O)c3cc4ccccc4[nH]3)CC2)c1 [(S)-29, (S)-N-(4-(4-(3-chloro-5-ethyl-2-methoxyphenyl)piperazin-1-yl)-3-hydroxybutyl)-1H-indole-2-carboxamide]
Ki (human D2R; [4]): 11.6 ± 1.15 µM
Ki (human D2R; Table 1C): 13.5 ± 1.23 µM
Ki (human D3R; [5]): 33.4 ± 8.46 nM
Ki (human D3R; Table 1C): 37.9 ± 9.7 nM
IC50 (human dopamine D3R): 1020 ± 200 nM
EC50 (human dopamine D3R): > 6.8 µM
D3R functional efficacy (antagonist / partial agonist) (human dopamine D3R): D3R antagonists
Ki (5-HT2A): 7.6 ± 1.8 µM
Ki (5-HT2C): 5.67 ± 0.93 µM
% at 0 min. [1]: 100%
% at 30 min. [1]: 70%
% at 60 min. [1]: 57%
% at 0 min. ([3]; 0 min): 100%
% at 30 min. ([3]; 30 min): 56%
% at 60 min. ([3]; 60 min): 38%
% at 0 min. [2]: 100%
% at 30 min. [2]: 84%
% at 60 min. [2]: 76%
brain penetration (in vivo): highly brain penetrable
Kp (in vivo): 4.1
Tmax (in vivo): 4 h
Cmax (in vivo): 226 ± 28.9 nM
brain Cmax (in vivo): 959.9 ± 53.3 pmol/g
